Laboratory results as given in PMC12766724, “Synthesis, Anthelmintic Activity, and Mechanism of Action of 5‑Aryl‑1H‑indoles” (Journal of Agricultural and Food Chemistry, 2025).

How the values were obtained:
[1] = tested on: Heterodera schachtii second-stage juveniles (J2); assay: Motility on WMicrotracker ONE; assay type: in vivo
Outline: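 Second-stage juveniles of H. schachtii, reared on in vitro mustard roots on modified KNOP medium, were exposed to compounds in microtiter wells. Motility was scored as activity counts, i.e. interruptions of infrared microbeams passing through each well.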

[2] = tested on: Arabidopsis thaliana Col-0; assay: Germination rate and phytotoxicity; assay type: in vivo; conditions: for average fraction of germinated seeds: 5 DPS; for main root length / plant weight: 10 DPS
Outline: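 Sterilized Col-0 seeds sown on 1/2 MS with compounds at 5, 10, 50 and 100 μM in 0.3% DMSO (DMSO mock), grown under 16 h light/8 h dark at 22 °C/20 °C. Germination rate scored at day 5; primary root length and seedling weight after further 5 days.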

[3] = tested on: human keratinocytes (HaCaT); assay: Resazurin assay, 3-day treatment; assay type: cell-based
[4] = tested on: H. schachtii; assay: DESI-MS detection of compound in nematodes; set-up: species or system Heterodera schachtii
Experimental: (§1) For in situ visualization of selected compounds, desorption electrospray ionization mass spectrometry imaging (DESI-MSI) was performed by using a Synapt G2-Si MS instrument coupled to a 2D-DESI source (Waters). The spray solvent (95% MeOH with 0.1% ammonia) was delivered at 2 μL/min and nebulized with […] ultrapure nitrogen on sample slides. The DESI source was optimized as follows: tip-to-surface distance: 1 mm; tip-to-inlet distance: 5 mm; incidence angle: 55°; collection angle: 10°; capillary voltage: 4 kV; cone voltage: […]; mass range: 100–600, with 16 000–17 000 full width at half-maximum (fwhm) mass resolution. Data were acquired in the negative mode using MassLynx software (v4.1, Waters, Milford, MA). Spectra, with a spatial resolution of 30 μm, were acquired every second. All acquired spectra were then recalibrated with the exact mass of the standard compounds and normalized based on root mean square (RMS) intensities. […] DESI-MS/MS was performed on the same sampling area with a 20 eV collision energy scanning of nematodes, and the acquired MS/MS spectra were summarized for the fragmentation ion assignment, and the correct molecular formulas were first calculated using MassLynx software (v4.1) and then identified by their masses acquired from the standard solution. […]

[5] = tested on: C. elegans; assay: DESI-MS detection of compound in nematodes; set-up: species or system Caenorhabditis elegans
Experimental: as §1

[6] = tested on: H. schachtii second-stage juveniles (J2); assay: Nematicidal assay with NaOH agitation; assay type: in vivo, Heterodera schachtii; conditions: 50 µM; 48 h
Source text: To assess the nematicidal effect of compounds on H. schachtii second-stage juveniles (J2), approximately 50 J2 in sterile double-distilled water were transferred into each well of a flat-bottom 96-well plate and exposed to the test compounds or vehicle alone (DMSO 0.2%).

[7] = tested on: C. elegans wild-type and MCII mutants; assay: Recovery of pretreated worms on WMicrotracker ONE; assay type: in vivo, Caenorhabditis elegans; conditions: 5 or 10 μM for 72 h, then wash-out and recovery
Experimental: Briefly, for evaluation of the acute effect of the compounds, age-synchronized young adults of each strain, kept in S complete medium supplemented with E. coli OP50 (3 mg/mL, fresh weight), were transferred onto microtiter plates (96-well, U bottom), and their initial motility was measured for 30 min. […] Afterward, the compounds were washed away, and worms, supplemented with fresh liquid media and food, were distributed onto 96-well plates and allowed to recover. Their activity was measured using WMicrotracker ONE at the indicated time points.
C. elegans L1 larvae were exposed to 5 or 10 μM of the compounds for 72 h, after which the compounds were washed away, and the recovery of the nematodes was evaluated using WMicrotracker.

[8] = 10 µM group, initial (prior to the treatment)
[9] = 50 µM group, initial (prior to the treatment)
[10] = 100 µM group, initial (prior to the treatment)

Structure (SMILES) | average activity counts [1, 8] | average activity counts ([1]; 10 µM, 48 h) | average activity counts ([1]; 10 µM, 72 h) | average activity counts [1, 9] | average activity counts ([1]; 50 µM, 48 h) | average activity counts ([1]; 50 µM, 72 h) | average activity counts [1, 10] | average activity counts ([1]; 100 µM, 48 h) | average activity counts ([1]; 100 µM, 72 h) | average fraction of germinated seeds ([2]; 5 µM) | main root length ([2]; 5 µM) [mm] | plant weight ([2]; 5 µM) [mg] | average fraction of germinated seeds ([2]; 10 µM) | main root length ([2]; 10 µM) [mm] | plant weight ([2]; 10 µM) [mg] | average fraction of germinated seeds ([2]; 50 µM) | main root length ([2]; 50 µM) [mm] | plant weight ([2]; 50 µM) [mg] | Average viability (signal intensity relative to control) ([3]; 10 µM) | Average viability (signal intensity relative to control) ([3]; 20 µM) | also measured
CCCOc1cccc(-c2ccc3[nH]ccc3c2)c1 [i-12] | 192 | 200 | 158 | 176 | 195 | 136 | 195 | 166 | 177 | 0.96 | 37.25 | 32.51 | 0.93 | 38.66 | 34.91 | 0.93 | 35.82 | 27.55 | 1.06 ± 0.14 | 1.09 ± 0.13 | Average viability (signal intensity relative to control) ([3]; 40 µM): 1.06 ± 0.09
FC(F)(F)Oc1ccc(-c2ccc3[nH]ccc3c2)cc1 [i-21] | 175 | 170 | 146 | 177 | 142 | 102 | 187 | 150 | 104 | 0.98 | 41.56 | 34.37 | 1.00 | 42.21 | 36.56 | 1.00 | 35.82 | 24.65 | 0.96 ± 0.02 | 0.96 ± 0.04 | average fraction of germinated seeds ([2]; 100 µM): 0.96; main root length ([2]; 100 µM): 30.90 mm; plant weight ([2]; 100 µM): 21.97 mg; Average viability (signal intensity relative to control) ([3]; 40 µM): 0.74 ± 0.11
CCCOc1ccc(-c2ccc3[nH]ccc3c2)cc1 [i-13] | 166 | 159 | 141 | 192 | 183 | 163 | 192 | 144 | 150 | 0.98 | 40.24 | 37.8 | 0.93 | 39.42 | 36.95 | 0.91 | 36.26 | 26.29 | 0.97 ± 0.01 | 0.98 ± 0.02 | DESI-MS signal of the compound in nematodes [4]: able to detect signals; Average viability (signal intensity relative to control) ([3]; 40 µM): 0.91 ± 0.04; DESI-MS signal of the compound in nematodes [5]: able to detect signals
Fc1ccc(-c2ccc3[nH]ccc3c2)cc1 [i-20] | 165 | 169 | 176 | 174 | 81 | 27 | 180 | 4 | 5 | 0.96 | 39.53 | 30.62 | 0.91 | 34.00 | 27.14 | 0.96 | 31.49 | 24.67 | 0.97 ± 0.01 | 0.99 ± 0.02 | decrease in mean activity counts ([1]; 100 µM, 72 h): 97%; nematicidal effect after NaOH addition [6]: immobilize worms rather than directly kill them; average fraction of germinated seeds ([2]; 100 µM): 0.95; main root length ([2]; 100 µM): 25.82 mm; plant weight ([2]; 100 µM): 16.94 mg; Average viability (signal intensity relative to control) ([3]; 40 µM): 0.94 ± 0.02
Clc1ccc(-c2ccc3[nH]ccc3c2)cc1 [i-19] | 190 | 179 | 192 | 183 | 90 | 18 | 195 | 121 | 30 | 0.93 | 38.83 | 32.28 | 0.96 | 37.74 | 30.72 | 0.97 | 33.27 | 24.85 | 1.01 ± 0.02 | 1.02 ± 0.05 | decrease in mean activity counts ([1]; 100 µM, 72 h): 85%; nematicidal effect after NaOH addition [6]: immobilize worms rather than directly kill them; DESI-MS signal of the compound in nematodes [4]: able to detect signals; average fraction of germinated seeds ([2]; 100 µM): 0.93; main root length ([2]; 100 µM): 19.96 mm; plant weight ([2]; 100 µM): 15.22 mg; resistance of MCII mutants compared to wild-type [7]: increased resistance of the MCII mutants; Average viability (signal intensity relative to control) ([3]; 40 µM): 0.86 ± 0.1; decrease in viability ([3]; 40 µM): approximately 5%; DESI-MS signal of the compound in nematodes [5]: able to detect signals
